# Entries after “also recorded” stand apart in the source; their conditions may differ. Where two headings read alike, the source gives them in different places.
# Legend:
# [1] = molecular target: T1, recombinant mouse LPLA2 (PLA2G15) (Mus musculus, UniProt Q8VEB4); test: Transacylase activity of LPLA2 (1-O-acyl-N-acetylsphingosine synthase, cell-free liposome assay); format: biochemical; conditions: read-out: LPLA2 IC50
# T1 construct: purchased Proteos Inc. (Kalamazoo, MI)
# T1 sequence (Q8VEB4 34-412): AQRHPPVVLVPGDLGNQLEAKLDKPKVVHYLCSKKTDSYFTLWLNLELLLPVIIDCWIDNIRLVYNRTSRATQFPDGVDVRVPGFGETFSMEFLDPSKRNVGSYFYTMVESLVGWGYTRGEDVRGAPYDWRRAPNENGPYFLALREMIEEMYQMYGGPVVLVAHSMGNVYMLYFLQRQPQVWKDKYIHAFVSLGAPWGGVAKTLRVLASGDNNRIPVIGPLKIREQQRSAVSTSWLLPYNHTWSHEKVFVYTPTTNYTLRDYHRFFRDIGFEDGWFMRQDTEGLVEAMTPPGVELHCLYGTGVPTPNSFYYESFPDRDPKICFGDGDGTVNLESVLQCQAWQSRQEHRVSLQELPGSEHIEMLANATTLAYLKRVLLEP
# [2] = molecular target: T2, LPLA2 (Mus musculus, UniProt Q8VEB4); test: LPLA2 esterase assay with pNPB; format: biochemical; conditions: pNPB substrate, no liposomes
# T2 construct: purchased Proteos Inc. (Kalamazoo, MI)
# T2 sequence (Q8VEB4 34-412): T1 sequence (Q8VEB4 34-412)
# Procedure: pNPB was used to directly measure the activity of LPLA2. pNPB is a water-soluble substrate that can directly access the catalytic site in the absence of liposomes ([25]). A reaction mixture of pNPB (0.2 mM) and cationic amphiphilic compounds at varying concentrations in sodium citrate buffer (pH 4.5) was prepared and prewarmed to 37°C for 5 min in a total volume of 500 μl. The reaction was initiated by the addition of recombinant LPLA2 (5 μg). At predetermined times, 120 μl of the reaction mixture was transferred to a tube containing 120 μl of 0.2 M NaHCO3 and kept on ice. The cold reaction product was subsequently warmed to 37°C, and the absorbance of the reaction product, p-nitrophenoxide, was measured at 400 nm with a Beckman Du-640 spectrophotometer.
# [3] = molecular target: T3, LPLA2 binding to DOPC/sulfatide liposomes (Mus musculus, UniProt Q8VEB4); test: Liposome LPLA2 cosedimentation assay; conditions: 150,000 g
# T3 construct: purchased Proteos Inc. (Kalamazoo, MI)
# T3 sequence (Q8VEB4 34-412): T1 sequence (Q8VEB4 34-412)
# [4] = molecular target: T2, LPLA2; test: LPLA2 thermal stability measurement (SYPRO Orange Tm); format: binding; conditions: N=3 ± SD
# [5] = system: MDCK cells; test: LipidTOX red particle quantification by fluorescence microscopy; format: cell-based
# [6] = molecular target: T2, LPLA2; test: LPLA2 transacylation activity toward p-NPB (1-O-butanoyl-N-acetylsphingosine formation); format: biochemical; conditions: 250 nM fosinopril; LPLA2, N-acetylsphingosine and p-NPB as monodispersion
# [7] = ref Pubchem and chEMBL database; cited from earlier work
# [8] = system: MDCK cells; test: Screening phospholipidosis assay (LipidTOX Red / NucBlue Live fluorescence ratio); conditions: LipidTOX Red to NucBlue Live fluorescence ratio, 24 h, 15 μM
structure (smiles),measurement,setting,value
CCC(=O)O[C@@H](O[P@](=O)(CCCCc1ccccc1)CC(=O)N1C[C@H](C2CCCCC2)C[C@H]1C(=O)O)C(C)C [Fosinopril],IC50,"[1]; 1-O-acyl N-acetylsphingosine synthase activity, pH 4.5, DOPC/sulfatide liposomes",0.18 µM
same,IC50,[1]; LPLA2 dependent 1-O-acyl N-acetylsphingosine synthase activity,0.181 µM
same,IC50,[1],0.18 µM
same,Inhibition of soluble esterase activity of LPLA2,[2],no inhibition
same,Cosedimentation of liposomes and recombinant LPLA2,[3],partially inhibited
same,"(ΔTm)c-(ΔTm)d, difference in melting temperature of LPLA2 alone or in the presence of drug",[4],-0.90 ± 0.1 °C
same,Percent area,[5]; 325 nM,increases
same,Increase in LipidTOX Red particle number versus controls,"[5]; 325 nM, 24 h",~20 fold
same,LipidTOX Red staining,"[5]; 24 h, versus non-treated control",significant increase
same,Cell number,[5]; versus non-treated control,No change
same,LipidTOX Red particle number (in words),[5]; versus non-treated control,significant increase; also recorded: significantly increased
same,Mean fluorescence intensity (MFI),[5]; versus non-treated control,significant increase; also recorded: increases
same,Inhibition of 1-O-butanoyl-N-acetylsphingosine formation,[6],no inhibition
same,pKa (basic),[7],-4.4
same,Ratio (15 μM),[8],0.67

# Source: article PMC8243516, “Inhibition of lysosomal phospholipase A2 predicts drug-induced phospholipidosis” (Journal of Lipid Research, 2021)
